Consider 4 substances from patent publication US20050118641A1, “Design Technique for Use in Engineering of Deamidation Rates of Peptides, Proteins, Hormones, and Peptide-Like, Protein-Like and Hormone-Like Molecules” (priority 2003, published 2005).

What all share (assay type): physicochemical
Data set [1] in a line: Deamidation of Asn pentapeptides GlyXxxAsnYyyGly (medians over Xxx). The source says:
(§1) Median values for carboxyl side residues of Asn and Gln were used in these derivations. The measurements for Asn are the most reliable and are used for these derivations. […] The half-time of hydrolysis was assumed to be 8010 days, but may be faster or slower. Regardless of the derivation based on Asn, calculations of Gln based on these values are found to approximately agree with the currently available data.
(§2) The natural log of the median hydrolysis-corrected rate constants times 100 (s^−1) for the Asn and Gln pentapeptides as a function of carboxyl-side residue as computed from the experimental data are listed in Table 1. The first columns are (100)(ln(k)) and are directly proportional to the Arrhenius activation energy. The second columns are normalized to Gly. This leaves only the side-chain effects and also defines the effect of the Gly hydrogen side-chain or a similar atom with mostly steric effects in this β-position as zero.
For most Asn peptides the computed result should be within 10% or less of the experimental value in 37° C., pH 7.4, 0.15 M Tris-HCl buffer or similar conditions. Gln rates are more affected by hydrolysis and cannot be verified to as high an accuracy with the current data. For Gln peptides and long lived Asn peptides, correction for hydrolysis should be made. With a hydrolysis value of 8010 days: t1/2total=1/(1/8010+1/t1/2calculated)

Data set [2] is described as follows: Deamidation of Gln pentapeptides GlyXxxGlnYyyGly (medians over Xxx). Particulars: Gln versus Asn peptide.
Text: as §1, §2
This model for Asn deamidation is also applicable to Gln deamidation, although Gln deamidation rates have not been as well characterized. While there may be important differences in the functional group effects for the longer Gln chain, the steric effects are similar as illustrated in FIG. 6. […] The fundamental difference between Asn and Gln rates has been removed by subtracting the Gln values from GlyXxxGlnGlyGly and the Asn values from GlyXxxAsnGlyGly.

A short description of data set [3]: Deamidation of insulin at Asn(B3). The method, then: As an example, consider the sequence Phe-ValAsn(B3)GlnHis of insulin. This peptide deamidates at Asn(B3) with a half-time of 136 days at 37° C., pH 7.4 sodium acetate, 0.1% methyl paraben, 0.7% NaCl.

With GlyXxxAsnThrGly, the experimental deamidation half-time in data set [1] (37° C., pH 7.4, 0.15 M Tris-HCl buffer) was determined as 46.2 days. On to GlyXxxAsnGlyGly, for which the “deamidation rate (50% chance of deamidating)” value in data set [1] is given as “about 1 day”. With GlyXxxGlnGlyGly, the “difference between GlyXxxGlnGlyGly and GlyXxxAsnGlyGly, (100)ln(k) scale” value in data set [2] was 644.8. Consider insulin, for which the “deamidation half-time at Asn(B3)” value in data set [3] (37° C., pH 7.4 sodium acetate, 0.1% methyl paraben, 0.7% NaCl) stood at 136 days. In addition, the “(100)ln(k) subtracted from the AsnGly value” in data set [3] (converted from the 136 day half-time) amounted to 478.3.
